Measured values from US20240270809A1, “ORAL GLP RECEPTOR AGONISTS” (priority 2020, published 2024).
Where two headings read alike, the source gives them in different places. Positions of bridges follow the written chain, without caps; N, C: chain ends. Non-standard residues stand in square brackets, D forms with d. Residues, ends and D or L forms follow the SMILES beside them. *: point of attachment. Malonyl(2,2-Me2,histaminyl) = CC(C)(C(=O)NCCc1cnc[nH]1)C(=O)*; Ala(1H-tetrazol-5-yl) = N[C@@H](Cc1nnn[nH]1)C(=O)O; αMePhe(2-F) = C[C@](N)(Cc1ccccc1F)C(=O)O; Nle = CCCC[C@H](N)C(=O)O; Aib = CC(C)(N)C(=O)O

Key:
mouse GLP2 receptor = target: T1, mouse GLP2 receptor (Mus musculus, UniProt Q5IXF8); assay: cAMP accumulation assay, functional agonism of mouse GLP2 receptor; type: cell-based
T1 construct: expressed in transfected cells; host or cells: HEK cells, transient transfection with GeneJuice
T1 sequence (Q5IXF8 1-512): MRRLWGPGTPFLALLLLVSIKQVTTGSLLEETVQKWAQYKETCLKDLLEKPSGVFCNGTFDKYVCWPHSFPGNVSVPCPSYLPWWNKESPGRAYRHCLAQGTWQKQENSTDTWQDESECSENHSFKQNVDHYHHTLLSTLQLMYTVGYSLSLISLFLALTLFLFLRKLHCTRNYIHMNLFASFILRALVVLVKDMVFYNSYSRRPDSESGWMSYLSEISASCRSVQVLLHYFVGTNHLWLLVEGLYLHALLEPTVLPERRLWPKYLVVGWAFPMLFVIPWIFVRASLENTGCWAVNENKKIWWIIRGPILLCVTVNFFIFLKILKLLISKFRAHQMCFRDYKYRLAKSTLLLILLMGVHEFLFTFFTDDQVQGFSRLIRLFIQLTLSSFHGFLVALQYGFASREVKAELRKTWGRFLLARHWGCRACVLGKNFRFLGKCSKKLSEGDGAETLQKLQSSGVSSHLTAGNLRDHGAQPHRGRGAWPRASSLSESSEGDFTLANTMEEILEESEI
Outline: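 pEC50 values come from four-parameter fits of HTRF cAMP signal, read after lysis and 1 h RT incubation. Compounds were incubated 45 min at 37 °C with previously frozen, transiently transfected HEK cells (8000/well) in HBSS containing 0.5 mM IBMX.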

in vitro = settings: Sprague Dawley, rat, real gastrointestinal fluid or homogenate
human GLP1 receptor = target: T2, human GLP1 receptor (Homo sapiens, UniProt P43220); assay: cAMP accumulation assay, functional agonism of human GLP1 receptor; type: cell-based; settings: HEK cells infected with human GLP1 receptor BacMam virus, HTRF cAMP; for Emax: HEK293, read-out: Human GLP-1R agonist cAMP Emax; for EC50: read-out: Human GLP-1R agonist cAMP pEC50 (converted)
T2 construct: expressed in transfected cells; host or cells: HEK cells, BacMam virus transduction
T2 sequence (P43220 24-463): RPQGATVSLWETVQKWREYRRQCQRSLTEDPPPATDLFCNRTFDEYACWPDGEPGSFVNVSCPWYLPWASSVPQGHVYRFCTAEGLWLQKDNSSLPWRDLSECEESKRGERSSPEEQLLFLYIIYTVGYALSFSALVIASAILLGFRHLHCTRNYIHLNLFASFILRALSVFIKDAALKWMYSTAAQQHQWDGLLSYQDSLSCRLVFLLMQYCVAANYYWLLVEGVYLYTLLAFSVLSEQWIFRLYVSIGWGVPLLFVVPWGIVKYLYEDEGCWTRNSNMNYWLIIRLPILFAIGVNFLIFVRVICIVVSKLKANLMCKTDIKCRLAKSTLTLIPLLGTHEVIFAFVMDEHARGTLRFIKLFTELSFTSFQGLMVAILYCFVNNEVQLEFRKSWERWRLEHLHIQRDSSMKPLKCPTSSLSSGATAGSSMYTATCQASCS
Outline: (§1)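 cAMP read by HTRF detection reagents in lysis buffer following 45 min agonist exposure at 37 °C. Cells: frozen HEK transduced for 24 h with GLP1 or GLP2 receptor BacMam, suspended in HBSS plus 0.5 mM IBMX.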

human GLP2 receptor = target: T3, human GLP2 receptor (Homo sapiens, UniProt O95838); assay: cAMP accumulation assay, functional agonism of human GLP2 receptor; type: cell-based; settings: HEK cells infected with human GLP2 receptor BacMam virus, HTRF cAMP; for Emax: HEK293, read-out: Human GLP-2R agonist cAMP Emax; for EC50: read-out: Human GLP-2R agonist cAMP pEC50 (converted)
T3 construct: expressed in transfected cells; host or cells: HEK cells, BacMam virus transduction
T3 sequence (O95838 1-553): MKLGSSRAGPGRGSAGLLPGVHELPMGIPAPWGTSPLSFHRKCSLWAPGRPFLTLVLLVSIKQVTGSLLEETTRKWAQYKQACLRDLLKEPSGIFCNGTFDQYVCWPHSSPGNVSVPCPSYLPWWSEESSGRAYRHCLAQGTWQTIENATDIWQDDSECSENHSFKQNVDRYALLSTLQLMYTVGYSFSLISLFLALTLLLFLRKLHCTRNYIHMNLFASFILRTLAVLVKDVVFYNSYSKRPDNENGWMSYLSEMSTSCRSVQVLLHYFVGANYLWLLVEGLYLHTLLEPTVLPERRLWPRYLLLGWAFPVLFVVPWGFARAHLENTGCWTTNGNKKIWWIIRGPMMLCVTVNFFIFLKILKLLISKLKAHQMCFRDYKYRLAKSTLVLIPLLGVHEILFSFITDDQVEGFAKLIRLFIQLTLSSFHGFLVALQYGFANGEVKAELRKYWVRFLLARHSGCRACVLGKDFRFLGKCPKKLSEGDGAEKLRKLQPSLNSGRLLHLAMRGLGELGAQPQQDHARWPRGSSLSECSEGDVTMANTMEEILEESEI
Outline: as §1

[1] = Stability of peptides in Fasted-State Simulated Intestinal Fluid (FaSSIF); type: in vitro ADME; settings: FaSSIF with 10 mg/ml pancreatin; t=30 mins, 37° C., pH 6.5, 10 mg/ml pancreatin
[2] = Stability of peptides in Fasted-State Simulated Gastric Fluid (FaSSGF); type: in vitro ADME; settings: FaSSGF with 0.1 mg/ml pepsin; t=30 mins, 37° C., pH 1.6, 0.1 mg/ml pepsin
Experimental: Stability of peptides was tested in Fasted-State Simulated gastric Fluid (FaSSGF) prepared according to manufacturer's protocol (Biorelevant, art. no. FFF01). […] FaSSGF was pre-incubated for 15 min at 37° C. and spiked with test and reference item working solutions. Experiments were conducted in duplicate in a non-serial manner. The total incubation volume per replicate was 150 μl. […] All samples and calibration standards (prepared in FaSSGF) were precipitated by addition of 300 μl precipitant (ACN / 2% acetic acid / 0.2% HFBA, (precipitation regent, PR)) containing internal standards (ISTD) to 150 μl sample. After incubation for 1 h at room temperature all samples were centrifuged for 10 min at 2,200×g (room temperature).

mouse GLP1 receptor = target: T4, mouse GLP1 receptor (Mus musculus, UniProt O35659); assay: cAMP accumulation assay, functional agonism of mouse GLP1 receptor; type: cell-based; settings: HEK cells transiently transfected with mouse GLP1 receptor, HTRF cAMP
T4 construct: expressed in transfected cells; host or cells: HEK cells, transient transfection with GeneJuice
T4 sequence (O35659 22-463): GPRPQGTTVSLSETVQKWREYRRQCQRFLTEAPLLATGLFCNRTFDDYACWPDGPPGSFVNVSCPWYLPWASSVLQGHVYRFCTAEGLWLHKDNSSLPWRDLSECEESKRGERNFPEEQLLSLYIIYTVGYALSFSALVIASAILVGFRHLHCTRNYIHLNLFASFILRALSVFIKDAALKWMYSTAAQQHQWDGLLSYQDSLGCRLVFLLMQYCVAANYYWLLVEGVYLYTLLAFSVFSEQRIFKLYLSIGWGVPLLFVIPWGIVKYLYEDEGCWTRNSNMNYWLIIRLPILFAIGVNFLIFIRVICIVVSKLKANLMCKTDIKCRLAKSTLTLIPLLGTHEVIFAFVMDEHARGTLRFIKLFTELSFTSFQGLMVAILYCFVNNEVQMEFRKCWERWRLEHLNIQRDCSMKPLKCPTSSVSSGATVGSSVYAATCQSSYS
Experimental: CAMP production upon agonist stimulation of mouse GLP2 or GLP1 receptors was assessed utilizing HiRange cAMP kit (Cisbio). In brief, HEK cells were transiently transfected for 24 hours with cDNA using GeneJuice Transfection reagent (EMD Millipore) and frozen at −80° C. for later use in the assay. […] Cells were prepared in the assay buffer (HBSS (Lonza) supplemented with 0.5 mM IBMX (Tocris)). After 45 min incubation at 37° C., the reaction was stopped by addition of the HTRF detection reagents in the lysis buffer provided in the kit. Following 1-hour incubation at RT, plates were read on Pherastar FS (BMG Labtech, Inc.) using standard HTRF settings. Dotmatics Studies software was used for calculation of pEC50 values by fitting data to a four-parameter concentration response curve.

[3] = Stability of peptides in rat intestinal fluid (ratIF); settings: Sprague Dawley, undiluted rat small intestinal fluid (ratIF)
[4] = HEK293, HEK cells transiently transfected with mouse GLP2 receptor, HTRF cAMP, read-out: Mouse GLP-2R agonist cAMP Emax
[5] = HEK cells transiently transfected with mouse GLP2 receptor, HTRF cAMP, read-out: Mouse GLP-2R agonist cAMP pEC50 (converted)

Compound	EC50 (mouse GLP2 receptor)	Emax (mouse GLP2 receptor; HEK293, read-out: Mouse GLP-2R agonist cAMP Emax)	remaining at 0.5 h (in vitro)	Emax (human GLP1 receptor)	EC50 (human GLP1 receptor)	Emax (human GLP2 receptor)	EC50 (human GLP2 receptor)	remaining at 0.5 h [1]	Emax (mouse GLP2 receptor; [4])	EC50 (mouse GLP2 receptor; [5])	remaining at 0.5 h [2]	Emax (mouse GLP1 receptor; HEK293, read-out: Mouse GLP-1R agonist cAMP Emax)	EC50 (mouse GLP1 receptor; read-out: Mouse GLP-1R agonist cAMP pEC50 (converted))	remaining at 0.5 h [3]
CCCC[C@@H]1NC(=O)[C@H](CCC(=O)O)NC(=O)[C@@H](NC(=O)[C@H](CO)NC(=O)[C@](C)(Cc2ccccc2F)NC(=O)[C@H](CO)NC(=O)[C@@H](C)NC(=O)[C@H](Cc2nn[nH]n2)NC(=O)C(C)(C)C(=O)NCCc2c[nH]cn2)CCCCNC(=O)C[C@@H](C(=O)N[C@H](C(=O)N[C@@H](CC(C)C)C(=O)N[C@@H](CC(=O)O)C(=O)N[C@H]2CCC(=O)NCCCC[C@@H](C(=O)N[C@@H](CC(=O)O)C(=O)N[C@@H](Cc3ccccc3)C(=O)N[C@H](C(=O)N[C@H]3CCCCNC(=O)C[C@@H](C(=O)N[C@H]4CCC(=O)NCCCC[C@@H](C(N)=O)NC(=O)[C@H]([C@@H](C)O)NC(=O)[C@H]([C@@H](C)CC)NC(=O)[C@H](CCCCN)NC4=O)NC(=O)[C@H]([C@@H](C)CC)NC(=O)[C@H](CC(C)C)NC(=O)[C@H](Cc4c[nH]c5ccccc45)NC3=O)[C@@H](C)CC)NC(=O)[C@H](C)NC(=O)[C@H](C)NC(=O)[C@H](CCCCN)NC2=O)[C@@H](C)CC)NC(=O)[C@@H](Cc2ccccc2)NC1=O [Example 55] ({Malonyl(2,2-Me2,histaminyl)}-[Ala(1H-tetrazol-5-yl)][dA]S[αMePhe(2-F)]SKE[Nle][dF]DILDEKAAKDFIKWLIDEKITK-NH2; lactam 6-10, 14-18, 22-26, 27-31 (inferred); C-terminus assumed)	0.316 nM	101%	64.9%	97.9%	0.0501 nM	103%	0.01 nM							
CCCC[C@@H]1NC(=O)[C@H](CCC(=O)O)NC(=O)[C@@H](NC(=O)[C@H](CO)NC(=O)[C@H](Cc2ccccc2)NC(=O)[C@H](CO)NC(=O)CNC(=O)[C@H](Cc2nn[nH]n2)NC(=O)C(C)(C)C(=O)NCCc2c[nH]cn2)CCCCNC(=O)C[C@@H](C(=O)N[C@H](C(=O)N[C@@H](CC(C)C)C(=O)N[C@@H](CC(=O)O)C(=O)N[C@H]2CCC(=O)NCCCC[C@@H](C(=O)N[C@@H](CC(=O)O)C(=O)N[C@@H](Cc3ccccc3)C(=O)N[C@H](C(=O)N[C@@H](CC(N)=O)C(=O)N[C@@H](Cc3c[nH]c4ccccc34)C(=O)N[C@@H](CC(C)C)C(=O)N[C@H](C(=O)N[C@@H](CCC(N)=O)C(=O)N[C@H](C(=O)N[C@H]3CCC(=O)NCCCC[C@@H](C(N)=O)NC(=O)[C@H]([C@@H](C)O)NC(=O)[C@H]([C@@H](C)CC)NC3=O)[C@@H](C)O)[C@@H](C)CC)[C@@H](C)CC)NC(=O)[C@H](C)NC(=O)[C@H](C)NC(=O)[C@H](CCCCN)NC2=O)[C@@H](C)CC)NC(=O)[C@@H](Cc2ccccc2)NC1=O [Example 2] ({Malonyl(2,2-Me2,histaminyl)}-[Ala(1H-tetrazol-5-yl)]GSFSKE[Nle][dF]DILDEKAAKDFINWLIQTEITK-NH2; lactam 6-10, 14-18, 28-31 (inferred); C-terminus assumed)				92.5%	0.398 nM	103%	0.0316 nM	11%	91.6%	1 nM	34%	94.3%	0.0398 nM	22.5%
CCCC[C@@H]1NC(=O)[C@H](CCC(=O)O)NC(=O)[C@@H](NC(=O)[C@H](CO)NC(=O)[C@](C)(Cc2ccccc2F)NC(=O)[C@H](CO)NC(=O)[C@@H](C)NC(=O)[C@H](CC(=O)O)NC(=O)C(C)(C)NC(=O)[C@@H](N)Cc2c[nH]cn2)CCCCNC(=O)C[C@@H](C(=O)N[C@H](C(=O)N[C@@H](CC(C)C)C(=O)N[C@@H](CC(=O)O)C(=O)N[C@H]2CCC(=O)NCCCC[C@@H](C(=O)N[C@@H](CC(=O)O)C(=O)N[C@@H](Cc3ccccc3)C(=O)N[C@H](C(=O)N[C@H]3CCCCNC(=O)C[C@@H](C(=O)N[C@H]4CCC(=O)NCCCC[C@@H](C(N)=O)NC(=O)[C@H]([C@@H](C)O)NC(=O)[C@H]([C@@H](C)CC)NC(=O)[C@H](CCCCN)NC4=O)NC(=O)[C@H]([C@@H](C)CC)NC(=O)[C@H](CC(C)C)NC(=O)[C@H](Cc4c[nH]c5ccccc45)NC3=O)[C@@H](C)CC)NC(=O)[C@H](C)NC(=O)[C@H](C)NC(=O)[C@H](CCCCN)NC2=O)[C@@H](C)CC)NC(=O)[C@@H](Cc2ccccc2)NC1=O [Example 59] (H-H[Aib]D[dA]S[αMePhe(2-F)]SKE[Nle][dF]DILDEKAAKDFIKWLIDEKITK-NH2; lactam 8-12, 16-20, 24-28, 29-33 (inferred); C-terminus assumed)				95.2%	0.2 nM	103%	0.02 nM	61.9%	103%	0.501 nM	100%			63.6%
CCCC[C@@H]1NC(=O)[C@H](CCC(=O)O)NC(=O)[C@@H](NC(=O)[C@H](CO)NC(=O)[C@H](Cc2ccccc2)NC(=O)[C@H](CO)NC(=O)[C@@H](C)NC(=O)[C@H](Cc2nn[nH]n2)NC(=O)C(C)(C)C(=O)NCCc2c[nH]cn2)CCCCNC(=O)C[C@@H](C(=O)N[C@H](C(=O)N[C@@H](CC(C)C)C(=O)N[C@@H](CC(=O)O)C(=O)N[C@H]2CCC(=O)NCCCC[C@@H](C(=O)N[C@@H](CC(=O)O)C(=O)N[C@@H](Cc3ccccc3)C(=O)N[C@H](C(=O)N[C@H]3CCCCNC(=O)C[C@@H](C(=O)N[C@H]4CCC(=O)NCCCC[C@@H](C(N)=O)NC(=O)[C@H]([C@@H](C)O)NC(=O)[C@H]([C@@H](C)CC)NC(=O)[C@H](CCCCN)NC4=O)NC(=O)[C@H]([C@@H](C)CC)NC(=O)[C@H](CC(C)C)NC(=O)[C@H](Cc4c[nH]c5ccccc45)NC3=O)[C@@H](C)CC)NC(=O)[C@H](C)NC(=O)[C@H](C)NC(=O)[C@H](CCCCN)NC2=O)[C@@H](C)CC)NC(=O)[C@@H](Cc2ccccc2)NC1=O [Example 40] ({Malonyl(2,2-Me2,histaminyl)}-[Ala(1H-tetrazol-5-yl)][dA]SFSKE[Nle][dF]DILDEKAAKDFIKWLIDEKITK-NH2; lactam 6-10, 14-18, 22-26, 27-31 (inferred); C-terminus assumed)				89.9%	0.501 nM	105%	0.00631 nM	68.7%	99.6%	1.26 nM	84.9%			14.7%
